# Test results reported in patent US20240390293A1, “DERIVATIVES OF THE PROTECTIN 10S,17S-DIHDA (PDX) AND USE THEREOF AS ANTIVIRAL, ANTI-INFLAMMATORY, AND ANTI-DIABETIC AGENTS” (priority 2021, published 2024).
# Read-outs that look alike come from different tables or passages of the source.
# Key:
# iNOS = assay: LPS-induced iNOS activity (nitrite production, Griess method) in J774 macrophages; format: cell-based, mice; conditions: for nitrite production in LPS-induced J774 mice macrophages: LPS 2.5 ng/ml, 18 h, dose-dependent; for IC50: Mus musculus
# Protocol: J774A.1 macrophages are grown in DMEM, supplemented with 10% Bovine Growth Serum (BGS) and 1% penicillin-streptomycin (PS). The J774A.1 macrophages are subsequently stimulated with LPS 2.5 ng/ml in DMEM supplemented with 10% BGS and 1% PS for 16 h-18 h. […] After incubation, the level of inflammation is evaluated by measuring the nitrite content in the medium by using the Griess method and normalized by protein concentration.
# SARS-CoV-2 [1] = assay: SARS-CoV-2 infected hamsters: viral titers and weight variation; format: in vivo, Golden Syrian hamsters
# Protocol: Animal Studies. 5-6 Week-old Golden Syrian hamsters were infected with 4.5 log PFU of original SARS-CoV-2 strain. On days 1, 2 and 3, or 1 to 5 post-infection, the animals were treated intraperitoneally with either Remdesivir (15 mg/kg), analog RM-598-48 (50 mg/kg), Remdesivir (15 mg/kg)+analog RM-598-48 (50 mg/kg), analog RM-598-44 (50 mg/kg), or with vehicle only (FIG. 28). The hamsters were monitored daily over a period of 14 days for clinical symptoms and weight loss. On day 4 post-infection, nasal turbinates and lungs were harvested to assess viral replication. All animal studies were approved by the Animal Protection Committee of the Centre Hospitalier Universitaire de Québec according to the Canadian Council on Animal Care guidelines.
# Viral titers. Viral titers were determined in cell culture to characterize the presence of live virus. Ten-fold dilutions of nasal turbinates and lung homogenates were performed in infection medium. After one week of infection, titers were determined and reported in TCID50 per gram of organ.
# SARS-CoV-2 [2] = assay: Plaque Reduction Assay (PRA) of SARS-CoV-2 replication on VERO E6 cells; format: cell-based
# [3] = tested on: interleukin-6 (IL-6) release; conditions: skeletal muscle cells; PDX at submicromolar concentrations; cited from earlier work
# [4] = tested on: influenza A/Puerto Rico/8/34 (H1N1); format: cell-based; conditions: A549 cells, 24 hours
# [5] = LPS-stimulated J774 macrophages, nitrite by Griess method, read-out: Anti-inflammatory Activity on iNOS IC50
# [6] = 50 mg/kg IP from day 1 until day 5 post-infection
# [7] = Severe acute respiratory syndrome coronavirus 2, Vero C1008, VERO E6 cells, plaque reduction assay, read-out: SARS-COV-2 Inhibition IC50
# [8] = Severe acute respiratory syndrome coronavirus 2, Vero C1008, read-out: SARS-COV-2 Inhibition (%)
smiles,measurement,setting,value
CC/C=C\C[C@H](O)/C=C/C=C\C=C\[C@@H](O)CCOc1ccc(CC(=O)OC)cc1 [PDX-2],nitrite production in LPS-induced J774 mice macrophages,iNOS,reduced nitrite production
same,IC50,iNOS; [5],64 µM
same,"weight loss (weight variation, % of initial weight)",SARS-CoV-2 [1]; [6],significantly limit weight loss
same,"weight loss (weight variation, % of initial weight)","SARS-CoV-2 [1]; 50 mg/kg IP on days 1, 2 and 3 post-infection, significant at days 3, 9, 11, 12 and 14",significantly limit weight loss
same,viral loads in nasal turbinates,"SARS-CoV-2 [1]; 50 mg/kg IP on days 1, 2 and 3 post-infection, titers on day 4, vs untreated hamsters",significantly different from the untreated hamsters
same,IC50,SARS-CoV-2 [2]; [7],33 µM
CC/C=C\C[C@H](O)/C=C/C=C\C=C\[C@@H](O)CCOc1cccc(CC(=O)OC)c1 [PDX-22],nitrite production in LPS-induced J774 mice macrophages,iNOS,reduced nitrite production
"CC/C=C\C[C@H](O)/C=C/C=C\C=C\[C@@H](O)C/C=C\C/C=C\CCC(=O)O [PDX, 10S, 17S-diHDA, reference compound]",IC50,iNOS; [5],96 µM
same,release of interleukin-6 (IL-6),[3],induce the release
same,inhibition at 5 µM,"SARS-CoV-2 [2]; Severe acute respiratory syndrome coronavirus 2, Vero C1008, 5 μM, VERO E6 cells, plaque reduction assay, read-out: SARS-COV-2 Inhibition (%)",0%
same,inhibition at 50 µM,"SARS-CoV-2 [2]; Severe acute respiratory syndrome coronavirus 2, Vero C1008, 50 μM, VERO E6 cells, plaque reduction assay, read-out: SARS-COV-2 Inhibition (%)",18%
CC/C=C\C[C@H](O)/C=C/C=C\C=C\[C@@H](O)CCN1CCCCC1 [PDX-7],nitrite production in LPS-induced J774 mice macrophages,iNOS,reduced nitrite production
CC/C=C\C[C@H](O)/C=C/C=C\C=C\[C@@H](O)CCOc1ccc(C)cc1 [PDX-1],nitrite production in LPS-induced J774 mice macrophages,iNOS,reduced nitrite production
same,IC50,iNOS; [5],11 µM
CC/C=C\C[C@H](O)/C=C/C=C\C=C\[C@@H](O)CCOc1ccncc1 [PDX-17],nitrite production in LPS-induced J774 mice macrophages,iNOS,reduced nitrite production
CC/C=C\C[C@H](O)C#C/C=C\C#C[C@@H](O)CCO [PDX-Al-1],nitrite production in LPS-induced J774 mice macrophages,iNOS,reduced nitrite production
same,IC50,"iNOS; J774, read-out: Anti-inflammatory Activity on iNOS IC50",18 µM
same,"weight loss (weight variation, % of initial weight)",SARS-CoV-2 [1]; [6],"tendency to limit weight loss, but not in a significant manner"
same,inhibition at 5 µM,SARS-CoV-2 [2]; [8],40%
same,inhibition at 50 µM,SARS-CoV-2 [2]; [8],30%
"CC/C=C\C[C@H](O)\C=C/C=C/C=C/[C@H](O)C/C=C\C/C=C\CCC(=O)O [PD1, protectin D1]",release of interleukin-6 (IL-6),[3],ineffective
same,decrease in the viral charge,[4]; 50 μM,10%
CC/C=C\C[C@H](O)/C=C/C=C\C=C\[C@@H](O)CCNCCCCCC [PDX-6],nitrite production in LPS-induced J774 mice macrophages,iNOS,reduced nitrite production
same,IC50,iNOS; [5],50 µM
same,IC50,SARS-CoV-2 [2]; [7],29 µM
CC/C=C\C[C@H](O)/C=C/C=C/C=C/[C@@H](O)CCN1CCCCC1 [PDX-10],nitrite production in LPS-induced J774 mice macrophages,iNOS,reduced nitrite production
same,IC50,iNOS; [5],32 µM
same,IC50,SARS-CoV-2 [2]; [7],56 µM
CC/C=C\C[C@H](O)/C=C/C=C\C=C\[C@@H](O)CCOc1cccc(CC(=O)O)c1 [PDX-21],nitrite production in LPS-induced J774 mice macrophages,iNOS,reduced nitrite production
CC/C=C\C[C@H](O)/C=C/C=C\C=C\[C@@H](O)CCNCCC [PDX-20],nitrite production in LPS-induced J774 mice macrophages,iNOS,reduced nitrite production
CC/C=C\C[C@H](O)/C=C/C=C\C=C\[C@@H](O)CCOc1ccc(CC(=O)NC)cc1 [PDX-23],nitrite production in LPS-induced J774 mice macrophages,iNOS,reduced nitrite production
"CCC(CC)COC(=O)[C@H](C)N[P@](=O)(OC[C@H]1O[C@@](C#N)(c2ccc3c(N)ncnn23)[C@H](O)[C@@H]1O)Oc1ccccc1 [Remdesivir, reference compound]",IC50,"SARS-CoV-2 [2]; Severe acute respiratory syndrome coronavirus 2, Vero C1008, read-out: SARS-COV-2 Inhibition IC50",3.9 µM
"O=c1c(O)c(-c2ccc(O)c(O)c2)oc2cc(O)cc(O)c12 [Quercetin, reference compound]",nitrite production in LPS-induced J774 mice macrophages,iNOS,reduced nitrite production
CC/C=C\C[C@H](O)/C=C/C=C\C=C\[C@@H](O)CCOc1ccc(C(=O)OC)cc1 [PDX-16],nitrite production in LPS-induced J774 mice macrophages,iNOS,reduced nitrite production
CC/C=C\C[C@H](O)/C=C/C=C\C=C\[C@@H](O)CCOc1ccc(CC(N)=O)cc1 [PDX-24],nitrite production in LPS-induced J774 mice macrophages,iNOS,reduced nitrite production
same,decrease in the viral charge,[4]; 50 μM,39%
CC/C=C\C[C@H](O)/C=C/C=C\C=C\[C@@H](O)CCOc1ccc(C(=O)O)cc1 [PDX-19],nitrite production in LPS-induced J774 mice macrophages,iNOS,reduced nitrite production
CC/C=C\C[C@H](O)/C=C/C=C\C=C\[C@@H](O)CCOc1ccc2ccc(=O)oc2c1 [PDX-18],nitrite production in LPS-induced J774 mice macrophages,iNOS,reduced nitrite production
"O=C1c2c(O)c(=O)ccn2N([C@@H]2c3ccccc3SCc3c2ccc(F)c3F)[C@@H]2COCCN12 [BXA, Baloxavir acid]",decrease in the viral charge,[4]; 5 μM,88%
